# Patent US20040102422A1, “Cancer therapy” (The University of Bristol, priority 2001, published 2004)
# What was measured:
# HeLa cells [1] = assay: MTT assay of HeLa cell viability / proliferation; type: cell-based; conditions: for cell proliferation (number of viable cells, MTT): HeLa cultured in media containing the single agent, read at 24 hour intervals, FIG. 1(d), 1(e)
# Experimental: (§1) In all of the following experiments, HeLa cells were maintained in Minimal Essential Medium (MEM: Sigma) supplemented with 10% Foetal Bovine Serum (FBS: Sigma) and penicillin (100,000 U/litre) and streptomycin (100 mg/litre) at 37° C. in 5% CO2. In some cases, supplements (all obtained from Sigma, with the exception of 3-hydroxytamoxifen which was obtained from Research Biochemicals International (RBI)) were added to the media at the concentrations specifically indicated for each separate experiment.
# Where MTT assays were carried out, this involved removal of the media, followed by incubation of the cells in 50 μg/ml MTT (3-(4,5 dimethylthiazol 2-yl) 2,5 diphenyl tetrazolium bromide) for 2 hours at 37° C. The blue formazan crystals were extracted and dissolved in DMSO (dimethylsulfoxide), and the absorbance measured at 560 nm wavelength using an ELISA plate reader (Mosmann, T. (1983) Journal of Immunological Methods 65, 55-631983).
# To examine the effects of RU486 and progesterone on cell proliferation, HeLa cells were cultured in media containing RU486 and/or progesterone and at 24 hour intervals the number of viable cells was determined using MTT assays (Mosmann, T. (1983) supra). […] The presence of RU486 has little effect on cell proliferation (FIG. 1(e)).
# HeLa cells [2] = assay: Apoptosis of HeLa cells transiently transfected with pWEB-E2 (HPV 16 E2) or empty pWEB, scored by GFP and Hoechst stain; type: cell-based
# Experimental: as §1
# Prior to transient transfection, cells were seeded at 3×10^5 cells per well onto coverslips in 6 well plates and incubated overnight to obtain a sub-confluent culture. The liposome based reagent Tfx-20 (Promega) was used at a 3:1 liposome:DNA ratio in 1 ml serum-free media per transfection, according to the manufacturer's instructions. After 30 hours, the coverslips were washed in phosphate buffered saline (PBS) and the cells fixed in 4% paraformaldehyde/PBS at 22° C. for 30 minutes. Following further washes in PBS, the cells were stained with bisbenzimide (Hoechst No. 33258: Sigma) for 30 minutes. Finally the coverslips were washed in PBS and mounted onto microscope slides in 10 μl MOWIOL (Calbiochem).
# Where used, fluorescence microscopy was carried out using a Leica DM IRBE inverted epi-fluorescent microscope with FITC and DAPI filter sets and a 20× air objective (Leica).
# The plasmid pWEB-E2 expresses the HPV 16 E2 protein (Webster, K. et al., (2000) supra). Increasing amounts of pWEB-E2 and the empty pWEB vector were transiently transfected into HeLa cells, an HPV 18-transformed cell cervical carcinoma cell line, along with a plasmid (pCMX-GFP3- supplied by Dr Jeremy Tavaré of the Department of Biochemistry, University of Bristol, UK) that expresses the green fluorescent protein (GFP). After 30 hours the cells were fixed and then stained with bisbenzimide (Hoechst stain). Individual cells were scored as untransfected or transfected on the basis of GFP expression and then examined for chromatin condensation and membrane blebbing using Hoechst stain and GFP, respectively (Webster, K. et al., (2000) spra). 100 transfected cells were counted and the experiment was repeated four times.
structure (smiles),measurement,setting,value
CC(=O)[C@H]1CC[C@H]2[C@@H]3CCC4=CC(=O)CC[C@]4(C)[C@H]3CC[C@]12C [progesterone],"cell proliferation (number of viable cells, MTT)",HeLa cells [1],decrease in cell proliferation
same,levels of E2-induced apoptosis,"HeLa cells [2]; HeLa cultured in 2 μM progesterone for one week prior to transfection with pWEB-E2, FIG. 1(b)",significant increase
same,level of apoptosis in E2 expression plasmid transfected population,"HeLa cells [2]; HeLa cultured in 2 μM progesterone one week before transfection and incubated in 2 μM progesterone, no RU486, FIG. 1(c)",high levels of apoptosis
same,level of apoptosis in cells transfected with the empty pWEB vector,"HeLa cells [2]; HeLa cultured in progesterone for one week prior to transfection with pWEB, FIG. 1(b)",around 7%
"CC/C(=C(/c1ccc(OCCN(C)C)cc1)c1cccc(O)c1)c1ccccc1 [3-OHT, 3-hydroxytamoxifen]",proliferation of HeLa cells (MTT),"HeLa cells [1]; 3-OHT alone or 3-OHT with estrogen, over time, FIG. 2(e), 2(f)",no effect
same,percentage of apoptotic cells in the pWEB-transfected population,"HeLa cells [2]; empty vector pWEB, presence of estrogen and 3-OHT, FIG. 2(c)",around 5%
same,percentage of apoptotic cells,"HeLa cells [2]; pWEB-E2 transfected HeLa, 400 nM estrogen plus 400 nM 3-OHT, FIG. 2(c)",around 10%
C[C@]12CC[C@@H]3c4ccc(O)cc4CC[C@H]3[C@@H]1C[C@@H](O)C2=O [16α-hydroxyestrone],level of E2-induced apoptosis,"HeLa cells [2]; pWEB-E2 transfected HeLa incubated 24 hours in media with various concentrations of the hormone, FIG. 2(a), 2(b)",increases the level of E2-induced apoptosis
"CC#C[C@]1(O)CC[C@H]2[C@@H]3CCC4=CC(=O)CCC4=C3[C@@H](c3ccc(N(C)C)cc3)C[C@@]21C [RU486, Mifepristone]","cell proliferation (number of viable cells, MTT)",HeLa cells [1],little effect
same,levels of apoptosis,"HeLa cells [2]; 2 μM progesterone plus 100 nM and 200 nM RU486, compared with 50 nM RU486, FIG. 1(c)",raised compared to those at 50 nM RU486
same,level of E2-induced apoptosis,"HeLa cells [2]; pWEB-E2 transfected HeLa, 2 μM progesterone plus 50 nM RU486, FIG. 1(c)",reduced almost to the background levels
same,level of apoptosis in the untransfected cells,"HeLa cells [2]; progesterone plus 200 nM RU486, FIG. 1(c)",slight increase
